Data as given in publication PMC5914052, “ATR kinase inhibitors NVP-BEZ235 and AZD6738 effectively penetrate the brain after systemic administration” (Radiation Oncology (London, England), 2018).
Where two headings read alike, the source gives them in different places.

Assays:
[1] = Pharmacokinetics after i.p. delivery: blood and brain concentration by HPLC/MS; format: in vivo, CD-1 mice; conditions: 25 mg/Kg i.p.; for concentration at 1 h / concentration at 2 h / concentration at 6 h / concentration at 8 h: mouse, ip, tumor-free CD-1 mice
Description: Tumor-free 8-weeks old CD-1 mice (Envigo, http://www.envigo.com) were inoculated i.p. with 25 mg/Kg body weight of NVP-BEZ235 or AZD6738. 1, 2, 6 and 8 h later, blood was collected by retro-orbital bleeding after which the mice were euthanized by CO2 asphyxiation and the brains explanted. Blood and brain samples were then extracted and NVP-BEZ235 and AZD6738 concentrations determined by High Performance Liquid Chromatography (HPLC)/mass spectrometry (MS) as described.
The biodistribution and pharmacokinetics of these ATRi, in particular the concentration reached in the brain after i.p. delivery, is crucial to determine optimal tumor radio-sensitization conditions in vivo. The presence of genuine NVP-BEZ235 and AZD6738 in the mouse blood and brain after i.p. delivery was investigated using HPLC/MS. Figure 1a and 1c show the isotopic patterns of NVP-BEZ235 and AZD6738 respectively, as determined by MS. A logarithmic relationship was found between abundance of NVP-BEZ235 (Fig. 1b) and AZD6738 (Fig. 1d) (expressed in arbitrary units) and their concentrations. For both NVP-BEZ235 and AZD6738, the Limit of Quantitation (LoQ) was 10 × 10^− 9 M. Tumor-free mice were inoculated i.p. with 25 mg/Kg body weight of NVP-BEZ235 (Fig. 1f) or AZD6738 (Fig. 1i). Mouse ID numbers are indicated at the top of Fig. 1f and I for the sake of reference. Blood samples were then withdrawn retro-orbitally after 1, 2, 6 and 8 h (Fig. 1g and k). Immediately after blood sampling, the animals were euthanized and their brains removed (Fig. 1e and h). All samples were homogenized and extracted concomitantly and its ATRi content determined by HPLC/MS. […] This value returned close to the LoQ (12 × 10^− 9 M) 8 h after the i.p. delivery (Fig. 1e).
Fig. 1 Pharmacokinetics of ATRi studied by HPLC/MS in positive polarity. a Isotopic pattern of NVP-BEZ235. b Relationship between HPLC/MS-determined abundance and concentration of NVP-BEZ235. The limit of quantitation (LoQ) was 10 × 10^− 9 M. c Isotopic pattern of AZD6738. d Relationship between HPLC/MS-determined abundance and concentration of AZD6738. The limit of quantitation (LoQ) was 10 × 10^− 9 M. e-g BBB crossing by NVP-BEZ235. Tumor-free mice were inoculated i.p. with 25 mg/Kg body weight of NVP-BEZ235 (f). At the indicated times [T (h)] blood was withdrawn retroorbitally for plasma isolation and analysis (g). Mice were then euthanized and the brains explanted (e). All blood and brain samples were then resuspended in water/methanol, homogenized, centrifuged and the supernatant determined for its NVP-BEZ235 concentration using HPLC/MS as described under Methods and Materials. Concentration values (× 10^− 9 M) are shown at the top of (e) and (g) and illustrated at half-panel by the area of a colored triangle. S.D. of values determined by this procedure is on average ± 31%. Mouse ID numbers are shown at the top of F for the sake of reference. h-k As in E-G but with AZD6738 TEXT PRINTED IN THE PICTURE: (e) NVP-BEZ235: [NVP-BEZ235] x 10^-9 M: 36 (T (h): 1; Brain); [NVP-BEZ235] x 10^-9 M: 111 (T (h): 2; Brain); [NVP-BEZ235] x 10^-9 M: 44 (T (h): 6; Brain); [NVP-BEZ235] x 10^-9 M: 12 (T (h): 8; Brain) | (g) NVP-BEZ235: [NVP-BEZ235] x 10^-9 M: 146 (T (h): 1; Blood); [NVP-BEZ235] x 10^-9 M: 32 (T (h): 2; Blood); [NVP-BEZ235] x 10^-9 M: 28 (T (h): 6; Blood); [NVP-BEZ235] x 10^-9 M: 12 (T (h): 8; Blood) | (h) AZD6738: [AZD6738] x 10^-9 M: 480 (T (h): 1; Brain); [AZD6738] x 10^-9 M: 380 (T (h): 2; Brain); [AZD6738] x 10^-9 M: 80 (T (h): 6; Brain); [AZD6738] x 10^-9 M: 9 (T (h): 8; Brain) | (k) AZD6738: [AZD6738] x 10^-9 M: 760 (T (h): 1; Blood); [AZD6738] x 10^-9 M: 1480 (T (h): 2; Blood); [AZD6738] x 10^-9 M: 140 (T (h): 6; Blood); [AZD6738] x 10^-9 M: 40 (T (h): 8; Blood)

[2] = test system: COMI GIC-driven orthotopic GB; conditions: for Effect on survival of irradiated animals: 25 mg/Kg i.p. + 0.5 Gy IR, three consecutive days, versus vehicle+IR; for Median animal survival: 25 mg/Kg i.p. followed 4 h later by 0.5 Gy IR to the head, at d22, d23 and d24, vehicle (DMSO)+IR 99 days
ATR = conditions: in cells, cited from earlier work
PI3K/mTOR pathway = conditions: cited from earlier work; for IC50: in cells
[3] = Brain histopathology (H/E) of tumor-bearing mice treated with ATRi+IR; conditions: H/E staining at d88
[4] = Tolerability of NVP-BEZ235 doses above 25 mg/Kg in animals; format: in vivo; conditions: our animals, data not shown
Excerpt: Gil del Alcazar and coworkers have described radiosensitization of orthotopic GB by NVP-BEZ235 using the established glioma cell line U87 [15]. The U87-driven tumors yet poorly mimic the infiltrative and neovascularization growth properties of clinical GB [17]. Further, the U87 cell line was recently reported to represent a mix-up with another cell line. In order to investigate the radiosensitization properties of NVP-BEZ235 towards orthotopic GB driven by primary GIC that more faithfully mimic the clinical tumors growth, [17] we preliminarily investigated the pharmacokinetics of NVP-BEZ235 using HPLC/MS. […] The early termination of recent NVP-BEZ235 clinical trials due to elevated toxicity may confirm that safety dosing of NVP-BEZ235 should be thoroughly investigated prior to use. […] (Fig. 1e). […] NVP-BEZ235 can diffuse to brain tissues at pharmacologically active levels after systemic administration, albeit the presence of the efflux ABC-transporters (in particular ABCG2) at the BBB may in part restrict its brain penetration. In a preliminary tumor radiosensitization study, we then developed primary adult COMI tumors in NOD SCID mice, whose immunodeficient phenotype is required for reproducible engraftment in virtually 100% of mice (Fig. 2a). […]

[5] = mouse, in vivo
[6] = test system: orthotopic xenograft models of GB; set-up: method as in PMID 27542970; conditions: nude rats and NOD/SCID mice; cited from earlier work
[7] = brain, read-out: Brain concentration
[8] = plasma, read-out: Blood concentration

With `C[C@@H]1COCCN1c1cc(C2([S@](C)(=N)=O)CC2)nc(-c2cc[nH]c3nccc2-3)n1` [AZD6738] the “Brain concentrations achievable after i.p. administration relative to NVP-BEZ235” value ([1]; AZD6738 versus NVP-BEZ235) was […], the concentration at 1 h [1, 7] was 480 nM and the concentration at 2 h [1, 7] was 380 nM. For the same molecule, the concentration at 6 h [1, 7] was 80 nM, the concentration at 8 h [1, 7] was 9 nM and the concentration at 1 h [1, 8] was 760 nM. For the same molecule, the concentration at 2 h [1, 8] was 1480 nM, the concentration at 6 h [1, 8] was 140 nM and the concentration at 8 h [1, 8] was 40 nM. The “Effect on survival of irradiated animals” value [2] was “could not observe any survival improvement”, the Median animal survival [2] was 101 days and the IC50 (ATR; read-out: IC50 for ATR kinase inhibition in cells) was […]. The “Inhibition of related kinases in the PI3K/mTOR pathway” value (PI3K/mTOR pathway) was “does not inhibit significantly” and the “Brain histology variation versus DMSO+IR” value [3] was “No significant histology variations”.
In the case of `Cn1c(=O)n(-c2ccc(C(C)(C)C#N)cc2)c2c3cc(-c4cnc5ccccc5c4)ccc3ncc21` [NVP-BEZ235], the “Decrease of blood concentration from 1 h to 2 h” value ([1]; 1 h versus 2 h) is reported as greater than 4 fold, the concentration at 1 h [1, 7] is reported as 36 nM and the concentration at 2 h [1, 7] is reported as 111 nM. For the same molecule, the concentration at 6 h [1, 7] was 44 nM, the concentration at 8 h [1, 7] was 12 nM and the concentration at 1 h [1, 8] was 146 nM. The concentration at 2 h [1, 8] was 32 nM, the concentration at 6 h [1, 8] was 28 nM and the concentration at 8 h [1, 8] was 12 nM. The “Toxicity of doses higher than 25 mg/Kg i.p.” value [4] was “significant toxicity”, the “Effect on survival of irradiated animals” value [2] was “no elongation of median survival” and the Median animal survival [2] was 86 days. The “Brain histology variation versus DMSO+IR” value [5] was “No significant histology variations”, the IC50 (ATR; read-out: IC50 for ATR inhibition in cells) was 21 nM and the IC50 (PI3K/mTOR pathway; S473-Akt, read-out: Concentration giving 50% reduction of S473-Akt levels in cells) was 8 nM. For the same molecule, the IC50 (PI3K/mTOR pathway; T308-Akt, read-out: Concentration giving 50% reduction of T308-Akt levels in cells) was 30 nM, the “Side effects of doses higher than 25 mg/Kg” value [6] was “severe side effects” and the “Survival benefit or inhibition of tumour growth” value [6] was “no survival benefit or inhibition of tumour growth”.
